The results in this text go back to paper PMC12064818, “A general assay platform to study protein pharmacology using ligand-dependent structural dynamics” (Nature Communications, 2025).

Molecules are shown by their SMILES. A value given as a limit tells only on which side of the number the result lay.

This assay has as its target T1, FLuc-C-HiBiT (Photinus pyralis, UniProt P08659).
T1 construct: firefly luciferase with C-terminal HiBiT tag, E. coli expressed
Put plainly: biochemical. The conditions noted are these: enzyme activity, 10 uM ATP; read-out: IC50 or SDR50 (mM) / FLuc E.

T1 sequence (P08659 whole entry, looked up): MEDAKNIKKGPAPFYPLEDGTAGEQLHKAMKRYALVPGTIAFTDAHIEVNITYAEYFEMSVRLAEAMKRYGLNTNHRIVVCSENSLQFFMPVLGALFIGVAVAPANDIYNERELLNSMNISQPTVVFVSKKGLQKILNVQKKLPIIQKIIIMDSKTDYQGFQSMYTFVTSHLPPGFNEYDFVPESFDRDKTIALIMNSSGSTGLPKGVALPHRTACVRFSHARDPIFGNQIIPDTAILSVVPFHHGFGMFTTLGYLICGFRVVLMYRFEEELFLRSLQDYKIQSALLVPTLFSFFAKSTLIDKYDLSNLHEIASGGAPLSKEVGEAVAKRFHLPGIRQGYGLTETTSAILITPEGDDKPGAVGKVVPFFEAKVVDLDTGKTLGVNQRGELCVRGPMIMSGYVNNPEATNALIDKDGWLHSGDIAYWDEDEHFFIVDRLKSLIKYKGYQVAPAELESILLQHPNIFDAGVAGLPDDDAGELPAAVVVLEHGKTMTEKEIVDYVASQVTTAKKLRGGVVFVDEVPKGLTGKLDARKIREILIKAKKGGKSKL

Turning to `COc1ccc(-c2nc3ccccc3s2)cc1NC(=O)c1cccc(F)c1` [NCGC00141116-01], the IC50 is > 30 µM. Regarding `O=C1c2cnc(-c3cccc(F)c3)nc2OCCN1c1ccccc1` [NCGC00413626-01], the IC50 came out at 14.3 µM. Regarding `Cc1ccc(C(=O)Nc2cccc(C(=O)O)c2)cc1` [MLS000530214-02], the IC50 was found to be 0.0556 µM. On to `COc1ccc(-n2nc(C)c([C@@H]3C=C[C@@H](NC(=O)NCc4ccccc4)C3)c2C)cc1` [NCGC00421411-01], for which the IC50 came out at 6.4 µM.

Consider `Cc1cccc(CNC(=O)Cc2csc3ccccc23)c1` [NCGC00113581-01], for which the IC50 was > 30 µM.

As to `COc1ccc(C)cc1NC(=O)c1ccc2c(Cl)c3c(nc2c1)CCC3` [NCGC00111420-01], the IC50 came out at 1.11 µM. Regarding `OCc1ccnc(-c2ccc(-c3ccn[nH]3)cc2)c1` [NCGC00444969-01], the IC50 was found to be 9.89 µM. With `Nc1nc(N2CCC3(CC2)NC(=O)CC3C(=O)O)c2nc[nH]c2n1` (centres unmarked) [NCGC00447244-01], the IC50 was > 30 µM. `Cc1ccccc1CN1CC[C@H](c2nc3ccccc3s2)C1` [NCGC00391192-01]: the IC50 was determined as 18 µM. The same measure for `COc1cccc(Nc2ccc(CN3CCC(C)(NC(C)=O)C3)cc2)c1` (centres unmarked) [NCGC00410471-01]: 20.2 µM; for `COc1ccc(CN2CCOc3nc(-c4cc5ccccc5o4)ncc3C2=O)cc1` [NCGC00413542-01]: 8.05 µM. For the compound `CC1(Cc2ccc3c(c2)OCO3)CCCN(C(=O)c2ccc3ncsc3c2)C1` (centres unmarked) [NCGC00444241-01], the IC50 worked out at 9.89 µM. As for `Nc1ccc2nc(-c3ccc(O)cc3)sc2c1` [NCGC00098122-01], the IC50 amounted to 0.624 µM. For the compound `COc1cccc(-c2noc(Nc3ccc4c(c3)OCO4)n2)c1` [NCGC00422370-01], the IC50 worked out at 6.24 µM. Regarding `CN1CCC(NC(=O)C(C)(C)Oc2nn(Cc3ncccn3)c3ccccc23)CC1` [NCGC00419638-01], the IC50 is > 30 µM. With `Cc1ccc(-c2nc(-c3ccccn3)no2)cc1Cl` [NCGC00070724-01], the IC50 stood at 0.624 µM. On to `CC(C)Cc1noc(-c2ccc(N3CCC(O)CC3)nc2)n1` [NCGC00434953-01], for which the IC50 is 5.56 µM. `COc1ccc(-c2cc(N3CCCC(NC(=O)c4cccc(OC)c4)C3)[nH]n2)cc1` (centres unmarked) [NCGC00437636-01]: the IC50 came to 7.85 µM.

With `Cc1nn(-c2ccc(C(C)C)cc2)c(C)c1[C@@H]1C=C[C@@H](NC(=S)NCC(C)C)C1` [NCGC00391239-01], the IC50 was 28.6 µM.

With `Cc1cc(NCCc2cnccn2)nc(-c2ccccc2O)n1` [NCGC00445970-01], the IC50 was > 30 µM.

Consider `O=C(c1cc(-c2ccc(F)cc2)nc2ccccc12)N1CCC(c2nc(C3CCOCC3)no2)C1` (centres unmarked) [NCGC00453669-01], for which the IC50 amounted to 9.89 µM.

On to `CN1c2cc(C(=O)Nc3ccccc3)ccc2C(=O)N2CCCCCC21` (centres unmarked) [NCGC00452190-01], for which the IC50 was found to be 11.1 µM. Take `O=C1NCCCc2[nH]c(-c3cc(-c4cccc(F)c4)no3)nc21` [NCGC00447462-01]: the IC50 worked out at 7 µM. Consider `CC1CCN(C(=O)c2cc3c(s2)CCC(C(=O)O)C3)CC1` (centres unmarked) [NCGC00432771-01], for which the IC50 was found to be 14 µM. Turning to `CN(Cc1cccnc1)c1ccc(-c2nc(COc3ccccc3)no2)cn1` [NCGC00425502-01], the IC50 came out at 12.4 µM. Consider `CCCCOc1nc(N)c2[nH]c(=O)n(CCCN(CCCN3CCOCC3)Cc3cccc(CC(=O)OC)c3)c2n1` [NCGC00886690-01], for which the IC50 was > 30 µM. For `CC(C)n1cnnc1CN(C)c1nc(N)nc2[nH]cnc12` [NCGC00449084-01], the IC50 is > 30 µM. `Cc1ccc(-n2ncc3c(N4CCCCCC4)ncnc32)cc1` [NCGC00139018-01]: the IC50 was 0.197 µM.

Turning to `Cc1ccc(NC(=O)Nc2ccc(C)n(CC(=O)NC(C)(C)C)c2=O)cc1` [NCGC00430790-01], the IC50 worked out at 3.94 µM. For the compound `CC1CCN(c2ncnc3c2cnn3-c2ccc(F)cc2)CC1` [NCGC00139049-01], the IC50 stood at 11.1 µM. The same measure for `Nc1nccc(-c2c(-c3ccc(F)cc3)ncn2C2CCNCC2)n1` [NCGC00165900-01]: > 30 µM. Consider `Cc1c(NC(=O)C(C)(C)C)cccc1-c1nc2ccccc2s1` [NCGC00118970-01], for which the IC50 came to 5.56 µM. The result for `COc1ccc2cc(C3CN(C(=O)CCc4n[nH]c(C)n4)CCO3)ccc2c1` (centres unmarked) [NCGC00430617-01] reads 9.89 µM; that for `CCc1ccc2oc(-c3ccc(NC(=O)c4ccc(OC)c(Br)c4)cc3)nc2c1` [NCGC00098340-01], > 30 µM.

Take `CCOC(=O)C1(C)C=C(Nc2cccc(C(=O)O)c2)C(=O)N1c1ccccc1` (centres unmarked) [NCGC00100416-01]: the IC50 was determined as 12.4 µM.

On to `CCc1nnc(CC2CCN(C(=O)Nc3ccc4c(c3)OCCO4)CC2)[nH]1` [NCGC00458299-01], for which the IC50 amounted to 11.1 µM.

`CCC(=O)NCCC1CCN(C(=O)Nc2ccc(C)c(F)c2)CC1` [NCGC00425067-01]: the IC50 is 11.1 µM. Turning to `COc1cccc(Nc2ncc(-c3ccc(OC)nc3)c3c2OCC3)c1` [NCGC00412784-01], the IC50 worked out at 20.2 µM. As for `O=C(Nc1ccc([C@H]2OCC(=O)N(Cc3ccncc3)[C@@H]2CO)cc1)c1ccc(C(F)(F)F)cc1` [NCGC00395114-01], the IC50 was 11.1 µM. As for `COc1cc(OC)cc(C(=O)Nc2ccc(-c3nc4ccccc4s3)cc2C)c1` [NCGC00103060-01], the IC50 is > 30 µM. With `CSC(=S)Nc1ccc(-c2nc3ccc(C)cc3s2)cc1` [NCGC00640908-01], the IC50 was 2.48 µM.

Consider `CN(c1ccc(NC(=O)Nc2ccc(OC(F)(F)F)cc2)cc1)c1ccnc(Nc2cccc([S+](N)(=O)[O-])c2)n1` [NCGC00242042-02], for which the IC50 is > 30 µM. `COc1cccc(-c2noc(Nc3ccc4c(c3)OCCO4)n2)c1` [NCGC00422372-01]: the IC50 turned out to be 1.57 µM.

In the case of `Cc1nonc1COc1ccc(C(=O)Nc2cccc(-c3nc4ccccc4s3)c2)cc1` [NCGC00688799-01], the IC50 amounted to 9.89 µM. Consider `CCc1ccccc1NC(=O)c1nnn(-c2ccc(F)cc2)c1C` [NCGC00104938-01], for which the IC50 was determined as 11.1 µM. The result for `Cc1ccc(/C=C/c2nc3ccccc3[nH]2)cc1` [NCGC00139422-01] reads 0.0442 µM; that for `COc1ccccc1C(=O)Nc1onc2c1CCCC2` [NCGC00115908-01], 9.89 µM.

For `Cc1c(CN2CCOc3c(O)cc(-c4nc5ccccc5s4)cc3C2)cnn1C` [NCGC00240749-01], the IC50 is > 30 µM. With `Cc1ccc2cc(CN3CCN(CC(N)=O)CC3)c(-c3cccs3)nc2c1` [NCGC00436639-01], the IC50 came out at 12.4 µM. On to `Cn1ccnc1CN1CCNc2cc(Nc3ccccc3)ncc2C1` [NCGC00411128-01], for which the IC50 was 16.1 µM.

In the case of `CC(C)c1ccc(C(=O)Nc2cccc3cccnc23)cc1` [NCGC00103193-01], the IC50 came out at 9.89 µM. The result for `Fc1ccc(Cc2cn3cc(-c4ccccc4)nc3s2)cc1` [NCGC00102102-01] reads 0.442 µM; that for `COc1ccc(C(=O)NCCn2ccn3nc(-c4ccc(C)cc4C)cc3c2=O)cc1F` [NCGC00456968-01], 3.51 µM. As to `O=C(O)c1ccc(-c2noc(-c3ccc(F)cc3)n2)cc1` [NCGC00168098-01], the IC50 is 0.442 µM.

In the case of `Cc1cccc(OCC(=O)Nc2cccc(-c3nc4ccccc4s3)c2)c1` [NCGC00099366-01], the IC50 stood at 6.24 µM. As for `COc1ccc(-c2nc3ccccc3s2)cc1NC(=O)c1cc(OC)c(OC)c(OC)c1` [NCGC00102099-01], the IC50 is 1.57 µM.
